Experimental data taken from the CheMixHub viscosity set.
± gives the uncertainty stated by the source.

Test: xn = mol fraction of the nth substance listed

COC(=O)OC + CO
Settings | viscosity [mPa·s]
293.15 K, 101 kPa, x1 = 0.0381 | 0.5792 ± 0.0052
293.15 K, 101 kPa, x1 = 0.0818 | 0.5612 ± 0.0051
293.15 K, 101 kPa, x1 = 0.1346 | 0.5507 ± 0.005
293.15 K, 101 kPa, x1 = 0.1927 | 0.5478 ± 0.005
293.15 K, 101 kPa, x1 = 0.2626 | 0.5418 ± 0.0049
293.15 K, 101 kPa, x1 = 0.348 | 0.536 ± 0.0048
293.15 K, 101 kPa, x1 = 0.4533 | 0.5379 ± 0.0048
293.15 K, 101 kPa, x1 = 0.5871 | 0.548 ± 0.0049
293.15 K, 101 kPa, x1 = 0.7618 | 0.564 ± 0.005
293.15 K, 101.3 kPa, x1 = 0.0537 | 0.567 ± 0.031
293.15 K, 101.3 kPa, x1 = 0.0996 | 0.551 ± 0.03
293.15 K, 101.3 kPa, x1 = 0.2058 | 0.536 ± 0.029
293.15 K, 101.3 kPa, x1 = 0.3135 | 0.533 ± 0.029
293.15 K, 101.3 kPa, x1 = 0.41 | 0.535 ± 0.029
293.15 K, 101.3 kPa, x1 = 0.5086 | 0.54 ± 0.03
293.15 K, 101.3 kPa, x1 = 0.6104 | 0.545 ± 0.03
293.15 K, 101.3 kPa, x1 = 0.7229 | 0.554 ± 0.03
293.15 K, 101.3 kPa, x1 = 0.8338 | 0.57 ± 0.031
293.15 K, 101.3 kPa, x1 = 0.9067 | 0.586 ± 0.032
293.15 K, 101.3 kPa, x1 = 0.9509 | 0.6 ± 0.032
298.15 K, 101 kPa, x1 = 0.0381 | 0.5373 ± 0.0049
298.15 K, 101 kPa, x1 = 0.0818 | 0.5292 ± 0.0049
298.15 K, 101 kPa, x1 = 0.1346 | 0.5164 ± 0.0047
298.15 K, 101 kPa, x1 = 0.1927 | 0.5119 ± 0.0047
298.15 K, 101 kPa, x1 = 0.2626 | 0.5061 ± 0.0046
298.15 K, 101 kPa, x1 = 0.348 | 0.503 ± 0.0046
298.15 K, 101 kPa, x1 = 0.4533 | 0.5058 ± 0.0046
298.15 K, 101 kPa, x1 = 0.5871 | 0.5227 ± 0.0047
298.15 K, 101 kPa, x1 = 0.7618 | 0.5374 ± 0.0048
298.15 K, 101.3 kPa, x1 = 0.0506 | 0.531 ± 0.029
298.15 K, 101.3 kPa, x1 = 0.1042 | 0.518 ± 0.029
298.15 K, 101.3 kPa, x1 = 0.2079 | 0.502 ± 0.028
298.15 K, 101.3 kPa, x1 = 0.3011 | 0.498 ± 0.028
298.15 K, 101.3 kPa, x1 = 0.3963 | 0.498 ± 0.028
298.15 K, 101.3 kPa, x1 = 0.4931 | 0.504 ± 0.028
298.15 K, 101.3 kPa, x1 = 0.589 | 0.509 ± 0.028
298.15 K, 101.3 kPa, x1 = 0.6927 | 0.517 ± 0.029
298.15 K, 101.3 kPa, x1 = 0.8137 | 0.53 ± 0.029
298.15 K, 101.3 kPa, x1 = 0.8997 | 0.548 ± 0.03
298.15 K, 101.3 kPa, x1 = 0.9575 | 0.566 ± 0.031
298.15 K, 101.33 kPa, x1 = 0.0989 | 0.482 ± 0.014
298.15 K, 101.33 kPa, x1 = 0.2009 | 0.462 ± 0.013
298.15 K, 101.33 kPa, x1 = 0.3008 | 0.458 ± 0.013
298.15 K, 101.33 kPa, x1 = 0.4008 | 0.457 ± 0.013
298.15 K, 101.33 kPa, x1 = 0.5 | 0.462 ± 0.013
298.15 K, 101.33 kPa, x1 = 0.6002 | 0.468 ± 0.014
298.15 K, 101.33 kPa, x1 = 0.7016 | 0.474 ± 0.014
298.15 K, 101.33 kPa, x1 = 0.8015 | 0.496 ± 0.015
298.15 K, 101.33 kPa, x1 = 0.9028 | 0.511 ± 0.015
303.15 K, 101 kPa, x1 = 0.0381 | 0.5011 ± 0.0047
303.15 K, 101 kPa, x1 = 0.0818 | 0.4896 ± 0.0046
303.15 K, 101 kPa, x1 = 0.1346 | 0.4814 ± 0.0045
303.15 K, 101 kPa, x1 = 0.1927 | 0.479 ± 0.0045
303.15 K, 101 kPa, x1 = 0.2626 | 0.4723 ± 0.0044
303.15 K, 101 kPa, x1 = 0.348 | 0.474 ± 0.0044
303.15 K, 101 kPa, x1 = 0.4533 | 0.473 ± 0.0044
303.15 K, 101 kPa, x1 = 0.5871 | 0.4884 ± 0.0045
303.15 K, 101 kPa, x1 = 0.7618 | 0.5087 ± 0.0046
303.15 K, 101.3 kPa, x1 = 0.026 | 0.503 ± 0.028
303.15 K, 101.3 kPa, x1 = 0.0707 | 0.489 ± 0.027
303.15 K, 101.3 kPa, x1 = 0.1832 | 0.469 ± 0.027
303.15 K, 101.3 kPa, x1 = 0.2839 | 0.467 ± 0.026
303.15 K, 101.3 kPa, x1 = 0.3823 | 0.468 ± 0.026
303.15 K, 101.3 kPa, x1 = 0.4869 | 0.472 ± 0.027
303.15 K, 101.3 kPa, x1 = 0.5847 | 0.475 ± 0.027
303.15 K, 101.33 kPa, x1 = 0.0989 | 0.443 ± 0.013
303.15 K, 101.33 kPa, x1 = 0.2009 | 0.432 ± 0.013
303.15 K, 101.33 kPa, x1 = 0.3008 | 0.427 ± 0.013
303.15 K, 101.33 kPa, x1 = 0.4008 | 0.429 ± 0.013
303.15 K, 101.33 kPa, x1 = 0.6002 | 0.439 ± 0.013
303.15 K, 101.33 kPa, x1 = 0.7016 | 0.447 ± 0.013
303.15 K, 101.33 kPa, x1 = 0.8015 | 0.459 ± 0.014
303.15 K, 101.33 kPa, x1 = 0.9028 | 0.48 ± 0.014
308.15 K, 101.33 kPa, x1 = 0.0989 | 0.415 ± 0.012
308.15 K, 101.33 kPa, x1 = 0.2009 | 0.406 ± 0.012
308.15 K, 101.33 kPa, x1 = 0.3008 | 0.404 ± 0.012
308.15 K, 101.33 kPa, x1 = 0.4008 | 0.403 ± 0.012
308.15 K, 101.33 kPa, x1 = 0.5 | 0.406 ± 0.012
308.15 K, 101.33 kPa, x1 = 0.6002 | 0.421 ± 0.013
308.15 K, 101.33 kPa, x1 = 0.7016 | 0.419 ± 0.013
308.15 K, 101.33 kPa, x1 = 0.8015 | 0.433 ± 0.013
308.15 K, 101.33 kPa, x1 = 0.9028 | 0.456 ± 0.014
313.15 K, 101 kPa, x1 = 0.0381 | 0.4382 ± 0.0042
313.15 K, 101 kPa, x1 = 0.0818 | 0.4297 ± 0.0041
313.15 K, 101 kPa, x1 = 0.1346 | 0.4193 ± 0.004
313.15 K, 101 kPa, x1 = 0.1927 | 0.4192 ± 0.004
313.15 K, 101 kPa, x1 = 0.2626 | 0.4166 ± 0.004
313.15 K, 101 kPa, x1 = 0.348 | 0.4177 ± 0.004
313.15 K, 101 kPa, x1 = 0.4533 | 0.4181 ± 0.004
313.15 K, 101 kPa, x1 = 0.5871 | 0.4314 ± 0.0041
313.15 K, 101 kPa, x1 = 0.7618 | 0.4469 ± 0.0041
323.15 K, 101 kPa, x1 = 0.0381 | 0.3851 ± 0.0038
323.15 K, 101 kPa, x1 = 0.0818 | 0.3724 ± 0.0037
323.15 K, 101 kPa, x1 = 0.1346 | 0.3704 ± 0.0037
323.15 K, 101 kPa, x1 = 0.1927 | 0.3692 ± 0.0037
323.15 K, 101 kPa, x1 = 0.2626 | 0.3685 ± 0.0036
323.15 K, 101 kPa, x1 = 0.348 | 0.3693 ± 0.0036
323.15 K, 101 kPa, x1 = 0.4533 | 0.3745 ± 0.0037
323.15 K, 101 kPa, x1 = 0.5871 | 0.3867 ± 0.0037
323.15 K, 101 kPa, x1 = 0.7618 | 0.3997 ± 0.0038
